Source: ChEMBL document CHEMBL5537169, “Structure-Activity Relationships and Discovery of (S)-6-Isopropyl-2-methoxy-3-(3-methoxypropoxy)-10-oxo-5,10-dihydro-6H-pyrido[1,2-h][1,7]naphthyridine-9-carboxylic Acid (AB-452), a Novel Orally Available HBV RNA Destabilizer” (J Med Chem, 2024)
≈ marks a conversion by molar mass, not a printed value. Calls of active or inactive are those of the source. The rule behind the calls is not given here.

Tests used:
[1] = Clearance in human liver microsomes at 0.3 uM pre-incubated for 10 mins followed by NADPH addition incubated for 60 mins by LC-MS/MS analysis; assay type: ADME, Microsome; settings: time 70 min, read-out: CLH
[2] = AUCinfinity in CD-1 mouse at 10 mg/kg,po measured at 0.083 to 24 hrs post administration by LC-MS/MS analysis; assay type: ADME, organism-based; settings: in vivo, time 0.083-24 hrs
[3] = Clearance in Sprague-Dawley rat at 2 mg/kg,iv measured at 0.083 to 24 hrs post administration by LC-MS/MS analysis; assay type: ADME, organism-based; settings: in vivo, time 0.083-24 hrs
[4] = Cmax in Sprague-Dawley rat at 10 mg/kg,po measured at 0.083 to 24 hrs post administration by LC-MS/MS analysis; assay type: ADME, organism-based; settings: Sprague-Dawley, in vivo, time 0.083-24 hrs, read-out: Cmax
[5] = Apparent volume of distribution at steady state in CD-1 mouse at 2 mg/kg,iv measured at 0.083 to 24 hrs post administration by LC-MS/MS analysis; assay type: ADME, organism-based; settings: in vivo, time 0.083-24 hrs, read-out: Vdss(app)
[6] = Half life in CD-1 mouse at 2 mg/kg,iv measured at 0.083 to 24 hrs post administration by LC-MS/MS analysis; assay type: ADME, organism-based; settings: in vivo, time 0.083-24 hrs
[7] = Cmax in CD-1 mouse at 2 mg/kg,iv measured at 0.083 to 24 hrs post administration by LC-MS/MS analysis; assay type: ADME, organism-based; settings: in vivo, time 0.083-24 hrs
[8] = AUCinfinity in CD-1 mouse at 2 mg/kg,iv measured at 0.083 to 24 hrs post administration by LC-MS/MS analysis; assay type: ADME, organism-based; settings: in vivo, time 0.083-24 hrs
[9] = Drug accumulation in CD-1 mouse plasma assessed as fold change in drug uptake at 10 mg/kg,po measured at 0.083 to 24 hrs post administration by LC-MS/MS analysis; assay type: ADME, organism-based; settings: in vivo, time 0.083-24 hrs
[10] = Drug accumulation in CD-1 mouse liver assessed as fold change in drug uptake at 10 mg/kg,po measured at 0.083 to 24 hrs post administration by LC-MS/MS analysis; assay type: ADME, organism-based; settings: in vivo, time 0.083-24 hrs
[11] = Apparent volume of distribution at steady state in Sprague-Dawley rat at 2 mg/kg,iv measured at 0.083 to 24 hrs post administration by LC-MS/MS analysis; assay type: ADME, organism-based; settings: in vivo, time 0.083-24 hrs, read-out: Vdss(app)
[12] = Half life in Sprague-Dawley rat at 2 mg/kg,iv measured at 0.083 to 24 hrs post administration by LC-MS/MS analysis; assay type: ADME, organism-based; settings: in vivo, time 0.083-24 hrs
[13] = Cmax in Sprague-Dawley rat at 2 mg/kg,iv measured at 0.083 to 24 hrs post administration by LC-MS/MS analysis; assay type: ADME, organism-based; settings: in vivo, time 0.083-24 hrs
[14] = AUCinfinity in Sprague-Dawley rat at 2 mg/kg,iv measured at 0.083 to 24 hrs post administration by LC-MS/MS analysis; assay type: ADME, organism-based; settings: Sprague-Dawley, in vivo, time 0.083-24 hrs
[15] = Drug accumulation in Sprague-Dawley rat plasma assessed as fold change in drug uptake at 10 mg/kg,po measured at 0.083 to 24 hrs post administration by LC-MS/MS analysis; assay type: ADME, organism-based; settings: in vivo, time 0.083-24 hrs
[16] = Drug accumulation in Sprague-Dawley rat liver assessed as fold change in drug uptake at 10 mg/kg,po measured at 0.083 to 24 hrs post administration by LC-MS/MS analysis; assay type: ADME, organism-based; settings: in vivo, time 0.083-24 hrs
[17] = Half life in Beagle dog at 2 mg/kg,iv measured at 0.083 to 24 hrs post administration by LC-MS/MS analysis; assay type: ADME, organism-based, Canis lupus familiaris; settings: in vivo, time 0.083-24 hrs; for half-life: Beagle
[18] = Cardiotoxicity in Langendorff-perfused New Zealand White rabbit heart assessed as increase in PR interval incubated for 45 mins by ECG analysis; assay type: toxicity, tissue-based, Oryctolagus cuniculus; settings: 0.75 h
[19] = Cardiotoxicity in Langendorff-perfused New Zealand White rabbit heart assessed as increase in QRS interval incubated for 45 mins by ECG analysis; assay type: toxicity, tissue-based, Oryctolagus cuniculus; settings: 0.75 h
HepG2 2.2.15 = test: Cytotoxicity against human HepG2.2.15 cells by Cell-titer Glo luminescent assay; assay type: functional
[20] = Drug accumulation in CD-1 mouse liver at 10 mg/kg,po measured at 0.083 to 24 hrs post administration by LC-MS/MS analysis; assay type: ADME, organism-based; settings: in vivo, time 0.083-24 hrs
[21] = Apparent volume of distribution at steady state in Sprague-Dawley rat at 10 mg/kg,po measured at 0.083 to 24 hrs post administration by LC-MS/MS analysis; assay type: ADME, organism-based; settings: in vivo, time 0.083-24 hrs
[22] = Drug accumulation in Sprague-Dawley rat liver at 10 mg/kg,po measured at 0.083 to 24 hrs post administration by LC-MS/MS analysis; assay type: ADME, organism-based; settings: in vivo, time 0.083-24 hrs
[23] = Kinetic solubility of compound in PBS at pH 4 incubated for 24 hrs by UPLC-UV analysis; assay type: physicochemical; settings: read-out: Kinetic_solubility
Cytochrome P450 2C9 = Cytochrome P450 2C9 (Homo sapiens, UniProt P11712); test: Reversible inhibition of CYP2C9 in human liver microsomes using diclofenac as substrate pre-incubated for 30 mins followed by NADPH addition and measured after 10 mins by LC-MS/MS analysis; assay type: ADME, Microsome
Cytochrome P450 2D6 = Cytochrome P450 2D6 (Homo sapiens, UniProt P10635); test: Reversible inhibition of CYP2D6 in human liver microsomes using dextromethorphan as substrate pre-incubated for 30 mins followed by NADPH addition and measured after 10 mins by LC-MS/MS analysis; assay type: ADME, Microsome
Cytochrome P450 3A4 = Cytochrome P450 3A4 (Homo sapiens, UniProt P08684); test: Reversible inhibition of CYP3A4 in human liver microsomes using midazolam as substrate pre-incubated for 30 mins followed by NADPH addition and measured after 10 mins by LC-MS/MS analysis; assay type: ADME, Microsome
[24] = Efflux ratio of apparent permeability from […] in human Caco-2 cells incubated for 120 mins by LC-MS/MS analysis; assay type: ADME, cell-based; settings: caco-2, 2 h
[25] = Clearance in Beagle dog at 2 mg/kg,iv measured at 0.083 to 24 hrs post administration by LC-MS/MS analysis; assay type: ADME, organism-based, Canis lupus familiaris; settings: in vivo, time 0.083-24 hrs
[26] = Cardiotoxicity in Langendorff-perfused New Zealand White rabbit heart assessed as increase in QT interval upto 10 uM incubated for 45 mins by ECG analysis; assay type: toxicity, tissue-based, Oryctolagus cuniculus; settings: 0.75 h
[27] = Toxicity in dog assessed as NOAEL administrated for 28 days; design: species or system Canis lupus familiaris; settings: in vivo, time 28 day
Hepatitis B virus [28] = test: Antiviral activity against AAV-Hepatitis B virus infected in C57BL/6 mouse assessed as serum HBsAg level at 3 mg/kg,po administrated once daily for 7 days by enzyme-linked immunoassay; assay type: functional; settings: time 7 day
Hepatitis B virus [29] = test: Antiviral activity against AAV-Hepatitis B virus infected in C57BL/6 mouse assessed as serum HBsAg level at 10 mg/kg,po administrated once daily for 7 days by enzyme-linked immunoassay; assay type: functional; settings: time 7 day
Hepatitis B virus [30] = test: Antiviral activity against AAV-Hepatitis B virus infected in C57BL/6 mouse assessed as liver HBsAg level at 3 to 30 mg/kg,po administrated once daily for 7 days by enzyme-linked immunoassay; assay type: functional, organism-based; settings: dose 3-30 mg/kg, time 7.0 day
Hepatitis B virus [31] = test: Antiviral activity against AAV-Hepatitis B virus infected in human Primary hepatocyte assessed as reduction in HBeAg level measured after 16 days by ELISA; assay type: functional, organism-based; settings: 384 h
Hepatitis B virus [32] = test: Antiviral activity against AAV-Hepatitis B virus infected in human Primary hepatocyte assessed as reduction in HBV DNA level measured after 16 days by ELISA; assay type: functional, organism-based; settings: 384 h

Cytochrome P450 2D6, sequence (P10635 whole entry): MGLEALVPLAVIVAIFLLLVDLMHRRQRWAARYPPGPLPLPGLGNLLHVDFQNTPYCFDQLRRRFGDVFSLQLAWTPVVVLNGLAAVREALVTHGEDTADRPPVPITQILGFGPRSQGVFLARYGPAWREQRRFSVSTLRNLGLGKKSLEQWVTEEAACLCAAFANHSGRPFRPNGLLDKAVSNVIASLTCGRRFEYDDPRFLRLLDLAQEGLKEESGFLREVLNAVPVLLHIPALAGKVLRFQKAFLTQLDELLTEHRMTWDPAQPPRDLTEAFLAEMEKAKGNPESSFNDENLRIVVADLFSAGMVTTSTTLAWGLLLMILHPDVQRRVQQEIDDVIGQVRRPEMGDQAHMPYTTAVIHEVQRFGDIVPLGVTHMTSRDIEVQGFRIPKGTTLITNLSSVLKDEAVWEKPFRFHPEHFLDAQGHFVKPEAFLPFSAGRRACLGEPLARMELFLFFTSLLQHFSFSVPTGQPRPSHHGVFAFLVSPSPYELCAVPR
Cytochrome P450 2C9, sequence (P11712 whole entry): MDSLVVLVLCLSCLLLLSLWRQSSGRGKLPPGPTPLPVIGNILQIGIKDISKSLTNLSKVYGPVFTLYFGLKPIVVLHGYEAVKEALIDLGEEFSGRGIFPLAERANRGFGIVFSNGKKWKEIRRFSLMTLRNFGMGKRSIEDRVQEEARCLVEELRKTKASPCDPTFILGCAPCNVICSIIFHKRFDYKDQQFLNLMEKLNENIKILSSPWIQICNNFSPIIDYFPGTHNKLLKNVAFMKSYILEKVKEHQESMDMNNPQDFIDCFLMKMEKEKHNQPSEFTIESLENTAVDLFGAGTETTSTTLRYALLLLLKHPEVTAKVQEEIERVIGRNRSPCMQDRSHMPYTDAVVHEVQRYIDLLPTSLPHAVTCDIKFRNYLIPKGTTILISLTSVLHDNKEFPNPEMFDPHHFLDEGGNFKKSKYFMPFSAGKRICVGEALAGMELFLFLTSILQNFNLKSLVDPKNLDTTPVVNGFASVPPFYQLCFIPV
Cytochrome P450 3A4, sequence (P08684 whole entry): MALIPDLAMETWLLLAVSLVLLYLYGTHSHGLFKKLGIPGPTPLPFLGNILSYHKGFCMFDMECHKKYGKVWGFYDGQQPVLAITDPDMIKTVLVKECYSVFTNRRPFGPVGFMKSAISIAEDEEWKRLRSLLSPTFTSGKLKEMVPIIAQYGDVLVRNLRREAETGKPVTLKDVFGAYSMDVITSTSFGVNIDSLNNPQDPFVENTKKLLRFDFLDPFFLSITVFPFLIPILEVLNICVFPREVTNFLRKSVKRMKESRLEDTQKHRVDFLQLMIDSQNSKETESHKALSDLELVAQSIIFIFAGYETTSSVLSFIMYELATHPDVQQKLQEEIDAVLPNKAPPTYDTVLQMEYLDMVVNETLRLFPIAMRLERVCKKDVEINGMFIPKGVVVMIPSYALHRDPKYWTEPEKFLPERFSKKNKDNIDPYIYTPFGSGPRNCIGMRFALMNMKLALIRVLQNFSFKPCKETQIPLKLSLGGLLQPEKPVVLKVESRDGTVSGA

Row | SMILES | microsomal CLint at 0.3 µM [1] | AUC(0-inf) [2] | clearance [3] | Cmax [4] | Vd [5] | half-life [6] | Cmax [7] | AUC(0-inf) [8] | fold change (FC) [9] | fold change (FC) [10] | Vd [11] | half-life [12] | Cmax [13] | AUC(0-inf) [14] | fold change (FC) [15] | fold change (FC) [16] | Activity [18] | Activity [19] | CC50 (HepG2 2.2.15) | solubility kinetic at 24 h [23] | other results
1 | COCCCOc1cc2c(cc1OC)-c1cc(=O)c(C(=O)O)cn1[C@H](C(C)C)C2 | 2 µL/min/mg | 6.15 µg·h/mL | 0.516 L/h/kg | 1.19 µg/mL | 1.2 L/kg | 1 h | 1.15 µg/mL | 1.28 µg·h/mL | < 1 | < 1 | 0.7 L/kg | 1.3 h | 4.95 µg/mL | 4.76 µg·h/mL | 3.4 | 12 | Toxic | Toxic |  |  | t1/2 ([17]; iv, 2 mg/kg): 1.5 h
2 | COCCCOc1cc2c(cc1Cl)-c1cc(=O)c(C(=O)O)cn1[C@H](C(C)C)CO2 | 5 µL/min/mg | 5.88 µg·h/mL |  |  |  |  |  |  |  |  |  |  |  |  |  |  | Toxic | Toxic | 39 µM | 31 µM (≈ 13.1 µg/mL) | Ct [20]: 425 ng/g; Vdss(app) [21]: 0.4 L/kg; Ct [22]: 29 ng/g; IC50 (Cytochrome P450 2C9): > 25 µM; IC50 (Cytochrome P450 2D6): > 25 µM; IC50 (Cytochrome P450 3A4): > 25 µM; Ratio [24]: 1.5; clearance [25]: 0.6 L/h/kg; half-life [17]: 1.4 h
3 | COCCCOc1cc2c(nc1OC)-c1cc(=O)c(C(=O)O)cn1[C@H](C(C)C)C2 | 3 µL/min/mg | 5.68 µg·h/mL | 0.576 L/h/kg | 1.54 µg/mL | 1.5 L/kg | 0.9 h | 1.18 µg/mL | 1.15 µg·h/mL | 8.6 | 2.6 | 0.7 L/kg | 1.3 h | 3.24 µg/mL | 3.5 µg·h/mL | 8.7 | 28 |  |  | > 50 µM | > 200 µM | IC50 (Cytochrome P450 2C9): > 25 µM; IC50 (Cytochrome P450 2D6): > 25 µM; IC50 (Cytochrome P450 3A4): > 25 µM; Ratio [24]: 3.8; clearance [25]: 0.324 L/h/kg; half-life [17]: 2.3 h; Activity [26]: Non-Toxic; NOAEL at 672 h [27]: 30 mg/kg; Activity (Hepatitis B virus [28]): 0.74 log10CFU; Activity (Hepatitis B virus [29]): 1.64 log10CFU; Activity (Hepatitis B virus [30]): Active; EC50 (Hepatitis B virus [31]): 0.003 µM; EC50 (Hepatitis B virus [32]): 0.003 µM
